# Assay results: ChEMBL document CHEMBL1201862, “PubChem BioAssay data set” (2004)
# Activity calls are given as the source filed them.
# Assays:
# HEK293 [1] = assay: cells; conditions: Homo sapiens
# HEK293 [2] = assay: cells; conditions: Homo sapiens; remark: listed apart in the source
# [3] = target: 26S proteasome non-ATPase regulatory subunit 14 (Homo sapiens, UniProt O00487); assay: inhibition of proteasome subunit RPN11 – biochemical, fluorescence polarization, uHTS hits, confirmation (AID 602368); assay type: functional
# [4] = target: 72 kDa type IV collagenase (Homo sapiens, UniProt P08253); assay: Dose Response validation of uHTS RPN11 inhibitor hits using a MMP-2 Fluorescence assay.; assay type: functional
# Prothrombin = Prothrombin (Bos taurus, UniProt P00735); assay: thrombin inhibition, dose response, biochemical, fluorescence polarization, uHTS hits (AID 602369); assay type: functional
# [5] = intracellular Trypanosoma cruzi inhibitors in host cells – cell-based, plate reader, cherry-pick samples, set 3, dose response (AID 651818); assay type: functional;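 note: compounds incubated with infected cells for about four days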
# CHO = assay: cytotoxicity in TLR9-MyD88 CHO cells, dose response, cytotoxicity control for TLR9-MyD88 binding inhibitor project, cell-based, luminescence (AID 588339); assay type: functional, hamster; conditions: Cricetulus griseus;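 note: CHO cells stably coexpressing TLR9 and MyD88 fusions from primary screen; compound exposure lasted 48 hours before viability readout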
# Beta Lactamase = Beta Lactamase (Pseudomonas aeruginosa, UniProt Q932Y6); assay: beta-lactamase reporter inhibitor potency, dose response, artefact control for TLR9-MyD88 binding inhibitor project, BLA reporter cells, FRET fluorescence (AID 588341); assay type: cell-based;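 note: cell based assay in CHO-K1 cells stably expressing beta-lactamase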
# [6] = target: T1, Adenosylmethionine-8-amino-7-oxononanoate aminotransferase (Mycobacterium tuberculosis, UniProt P9WQ81); assay: Mycobacterium tuberculosis BioA enzyme inhibitor Measured in Biochemical System Using Plate Reader - 2163-02_Inhibitor_Dose_CherryPick_Activity.; assay type: functional, Mycobacterium tuberculosis UT205
# T1 sequence (P9WQ81 whole entry): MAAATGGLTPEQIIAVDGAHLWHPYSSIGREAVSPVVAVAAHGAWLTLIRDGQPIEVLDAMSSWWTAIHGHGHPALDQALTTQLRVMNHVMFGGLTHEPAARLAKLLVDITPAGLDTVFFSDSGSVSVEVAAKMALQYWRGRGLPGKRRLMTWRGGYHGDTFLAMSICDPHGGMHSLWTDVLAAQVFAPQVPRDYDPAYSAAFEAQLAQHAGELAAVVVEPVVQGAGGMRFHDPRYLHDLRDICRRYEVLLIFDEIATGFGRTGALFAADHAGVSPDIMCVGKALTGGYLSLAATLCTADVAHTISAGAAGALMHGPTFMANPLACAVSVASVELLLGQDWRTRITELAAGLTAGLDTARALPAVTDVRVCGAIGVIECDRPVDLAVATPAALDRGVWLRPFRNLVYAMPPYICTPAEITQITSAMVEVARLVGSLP
# [7] = microbe, parasite or virus in culture; assay type: functional; conditions: Mycobacterium tuberculosis
# [8] = Shn3 3'UTR reporter inhibitors, dose response, cell-based, Clone20 osteoblasts, firefly luciferase, cherry-picked (AID 624132); assay type: functional;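 note: firefly luciferase luminescence from reporter carrying the Shn3 3'UTR in osteoblasts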
# [9] = HepG2 cell cytotoxicity, dose response, cytotoxicity control for Shn3 inhibitor project, CellTiter-Glo, cherry-picked (AID 624134); assay type: functional, cell-based
# [10] = control 3'UTR Renilla luciferase suppression, dose response, counter-screen for Shn3 inhibitor project, cell-based, Clone20-Shn3RL, cherry-picked (AID 624133); assay type: functional
# [11] = inhibitors of HIV Env-driven cell fusion, dose response, cherry-pick (AID 652057); assay type: functional, cell-based
# [12] = ZM109 Env clade C HIV-1 fusion inhibitors, dose response, HeLa effector, CEM target cells, luciferase, cherry-pick (AID 652058); assay type: functional, cell-based
# [13] = off-target signal loss in HeLa-CEM21 co-culture – HeLa F-luc CTL cells, cherry-picked, counter-screen for HIV-1 Env fusion inhibitor project, dose response (AID 652040); assay type: functional, cell-based;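 note: potency for signal decrease marking cytotoxic or nonspecific inhibition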
# [14] = inhibitors of clade B AD8 Env fusion, dose response, cell-based, cherry-pick (AID 652062); assay type: functional;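 note: luciferase signal from cell-cell fusion driven by HIV-1 clade B AD8 Env; potency is for inhibitors of fusion seen as a drop in luminescence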
# CHO-K1 = assay: Counterscreen for antagonists of the orexin 1 receptor (OX1R; HCRTR1): Homogeneous time resolved fluorescence (HTRF)-based cell-based dose response assay to identify antagonists of the parental CHO-K1 cell line. [Related pubchem assays (depositor defined):AID434989, AID435008, AID463079, AID485270, AID492963, AID492964, AID492965, AID493232, AID504699, AID504701]; assay type: functional; conditions: Cricetulus griseus;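 note: potency for inhibition of ATP-stimulated IP1 production as antagonists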
# [15] = Counterscreen for antagonists of the orexin 1 receptor (OX1R; HCRTR1): Fluorescence-based cell-based high throughput dose response assay to identify antagonists of the parental CHO cell line. [Related pubchem assays (depositor defined):AID434989, AID435008, AID463079, AID485270, AID492963, AID492964, AID492965, AID493232, AID504699, AID504701]; assay type: functional
# [16] = target: T2, Orexin/Hypocretin receptor type 1 (Homo sapiens, UniProt O43613); assay: Homogeneous Time Resolved Fluorescence (HTRF)-based cell-based high throughput dose response assay for antagonists of the orexin 1 receptor (OX1R; HCRTR1). [Related pubchem assays (depositor defined):AID434989, AID435008, AID463079, AID485270, AID492963, AID492964, AID492965, AID493232, AID504717, AID504718]; assay type: functional
# T2 sequence (O43613 whole entry): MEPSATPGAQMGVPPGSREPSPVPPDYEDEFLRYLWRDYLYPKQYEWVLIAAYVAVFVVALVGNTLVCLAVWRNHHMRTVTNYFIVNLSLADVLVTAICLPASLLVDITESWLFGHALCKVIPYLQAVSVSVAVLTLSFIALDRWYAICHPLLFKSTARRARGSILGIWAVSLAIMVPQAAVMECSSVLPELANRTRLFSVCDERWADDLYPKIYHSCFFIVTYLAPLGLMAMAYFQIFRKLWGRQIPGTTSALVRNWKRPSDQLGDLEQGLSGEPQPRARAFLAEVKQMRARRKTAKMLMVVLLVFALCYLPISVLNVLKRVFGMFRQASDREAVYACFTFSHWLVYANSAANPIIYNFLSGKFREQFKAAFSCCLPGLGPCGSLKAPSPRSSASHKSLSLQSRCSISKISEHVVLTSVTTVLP
# [17] = target: T2, Orexin/Hypocretin receptor type 1; assay: Fluorescence-based cell-based high throughput dose response assay for antagonists of the orexin 1 receptor (OX1R; HCRTR1). [Related pubchem assays (depositor defined):AID434989, AID435008, AID463079, AID485270, AID492963, AID492964, AID492965, AID493232, AID504717, AID504718]; assay type: functional
# [18] = target: T3, Mitochondrial peptide methionine sulfoxide reductase (Bos taurus, UniProt P54149); assay type: functional;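 note: absorbance read-out, biochemical high-throughput dose-response screen for MsrA inhibitors, confirmatory; recombinant bovine MsrA coupled to E. coli TrxB with NADPH and selenocystamine; potency is for inhibitors of MsrA activity on DMSO substrate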
# T3 sequence (P54149 whole entry): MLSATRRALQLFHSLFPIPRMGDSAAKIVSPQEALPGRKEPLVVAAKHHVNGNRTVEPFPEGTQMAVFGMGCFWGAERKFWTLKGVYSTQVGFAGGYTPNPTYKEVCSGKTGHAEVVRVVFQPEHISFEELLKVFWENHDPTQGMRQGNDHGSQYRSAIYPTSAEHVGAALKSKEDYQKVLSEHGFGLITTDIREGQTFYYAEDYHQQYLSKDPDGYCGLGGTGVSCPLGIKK
# Caspase-6 = target: T4, Caspase-6 (Homo sapiens, UniProt P55212); assay: human caspase-6 inhibitors, dose response, biochemical, VEID-R110 fluorescence, cherry-pick (AID 720632)
# T4 sequence (P55212 whole entry): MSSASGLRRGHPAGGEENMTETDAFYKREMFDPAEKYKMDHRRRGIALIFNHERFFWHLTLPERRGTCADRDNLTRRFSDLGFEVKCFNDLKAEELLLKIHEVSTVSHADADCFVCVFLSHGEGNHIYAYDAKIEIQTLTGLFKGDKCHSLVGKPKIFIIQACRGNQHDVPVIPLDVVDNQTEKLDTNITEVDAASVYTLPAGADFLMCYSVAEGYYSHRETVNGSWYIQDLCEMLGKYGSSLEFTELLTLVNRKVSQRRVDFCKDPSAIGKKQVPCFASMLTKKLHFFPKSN
# Vero = assay: cells; assay type: functional; conditions: Chlorocebus sabaeus
# Cytochrome P450 2D6 = Cytochrome P450 2D6 (Homo sapiens, UniProt P10635);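 note: CYP2D6 member of a cytochrome P450 panel assay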
# Cytochrome P450 1A2 = target: T5, Cytochrome P450 1A2 (Homo sapiens, UniProt P05177);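 note: PubChem cytochrome P450 panel assay, CYP1A2 panel member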
# T5 sequence (P05177 whole entry): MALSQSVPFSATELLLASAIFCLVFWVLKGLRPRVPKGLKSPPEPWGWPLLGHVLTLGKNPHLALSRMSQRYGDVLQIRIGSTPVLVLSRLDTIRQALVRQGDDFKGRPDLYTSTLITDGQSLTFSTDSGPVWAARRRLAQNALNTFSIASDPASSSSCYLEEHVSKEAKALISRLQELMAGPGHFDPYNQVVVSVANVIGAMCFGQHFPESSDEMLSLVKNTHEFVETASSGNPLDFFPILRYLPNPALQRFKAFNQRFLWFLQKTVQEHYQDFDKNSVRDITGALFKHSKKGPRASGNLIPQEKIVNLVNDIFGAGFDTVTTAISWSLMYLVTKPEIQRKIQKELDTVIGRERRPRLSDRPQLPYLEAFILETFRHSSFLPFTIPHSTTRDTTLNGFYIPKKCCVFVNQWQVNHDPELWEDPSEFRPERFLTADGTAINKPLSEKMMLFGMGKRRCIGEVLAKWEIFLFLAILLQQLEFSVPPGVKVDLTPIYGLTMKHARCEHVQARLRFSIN
# Cytochrome P450 2C9 = Cytochrome P450 2C9 (Homo sapiens, UniProt P11712)
# [19] = Luminescence Cell-Based Dose Retest to Confirm Inhibitors of Cancer Stem Cells. [Related pubchem assays (depositor defined):AID2717, AID2721]; assay type: functional; conditions: Homo sapiens
# Sequence of Beta Lactamase (Q932Y6 whole entry): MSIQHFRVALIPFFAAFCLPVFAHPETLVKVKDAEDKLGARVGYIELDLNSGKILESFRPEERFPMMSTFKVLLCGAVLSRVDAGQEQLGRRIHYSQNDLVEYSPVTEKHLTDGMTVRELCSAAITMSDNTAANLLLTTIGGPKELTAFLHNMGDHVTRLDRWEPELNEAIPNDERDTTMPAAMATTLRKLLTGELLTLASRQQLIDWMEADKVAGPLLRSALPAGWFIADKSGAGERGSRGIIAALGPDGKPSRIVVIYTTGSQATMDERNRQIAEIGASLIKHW
# Sequence of 72 kDa type IV collagenase (P08253 whole entry): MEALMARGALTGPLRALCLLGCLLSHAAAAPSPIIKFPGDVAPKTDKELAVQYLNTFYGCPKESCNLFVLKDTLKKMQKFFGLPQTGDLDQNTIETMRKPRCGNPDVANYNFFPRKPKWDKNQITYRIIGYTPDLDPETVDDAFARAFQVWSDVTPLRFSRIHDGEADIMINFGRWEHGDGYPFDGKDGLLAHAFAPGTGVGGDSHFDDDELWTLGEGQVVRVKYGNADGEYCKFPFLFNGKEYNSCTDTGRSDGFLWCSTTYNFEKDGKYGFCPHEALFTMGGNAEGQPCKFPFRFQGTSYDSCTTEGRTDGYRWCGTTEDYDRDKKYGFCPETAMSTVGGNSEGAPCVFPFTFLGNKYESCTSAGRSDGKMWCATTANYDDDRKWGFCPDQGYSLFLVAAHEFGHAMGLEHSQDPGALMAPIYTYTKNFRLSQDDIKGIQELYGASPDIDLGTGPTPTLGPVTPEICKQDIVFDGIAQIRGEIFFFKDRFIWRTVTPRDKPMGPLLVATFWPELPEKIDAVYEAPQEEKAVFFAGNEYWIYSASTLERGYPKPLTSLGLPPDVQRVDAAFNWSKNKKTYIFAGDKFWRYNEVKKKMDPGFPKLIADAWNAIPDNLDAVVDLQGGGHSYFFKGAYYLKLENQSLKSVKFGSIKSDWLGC
# Sequence of 26S proteasome non-ATPase regulatory subunit 14 (O00487 whole entry): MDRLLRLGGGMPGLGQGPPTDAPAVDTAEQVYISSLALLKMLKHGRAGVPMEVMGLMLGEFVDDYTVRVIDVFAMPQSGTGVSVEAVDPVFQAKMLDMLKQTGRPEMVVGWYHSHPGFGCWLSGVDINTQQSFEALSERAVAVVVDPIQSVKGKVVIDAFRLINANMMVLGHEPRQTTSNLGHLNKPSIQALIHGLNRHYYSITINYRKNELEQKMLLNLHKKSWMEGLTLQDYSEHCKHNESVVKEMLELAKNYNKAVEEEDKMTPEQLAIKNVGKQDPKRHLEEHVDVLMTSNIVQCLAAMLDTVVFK
# Sequence of Cytochrome P450 2C9 (P11712 whole entry): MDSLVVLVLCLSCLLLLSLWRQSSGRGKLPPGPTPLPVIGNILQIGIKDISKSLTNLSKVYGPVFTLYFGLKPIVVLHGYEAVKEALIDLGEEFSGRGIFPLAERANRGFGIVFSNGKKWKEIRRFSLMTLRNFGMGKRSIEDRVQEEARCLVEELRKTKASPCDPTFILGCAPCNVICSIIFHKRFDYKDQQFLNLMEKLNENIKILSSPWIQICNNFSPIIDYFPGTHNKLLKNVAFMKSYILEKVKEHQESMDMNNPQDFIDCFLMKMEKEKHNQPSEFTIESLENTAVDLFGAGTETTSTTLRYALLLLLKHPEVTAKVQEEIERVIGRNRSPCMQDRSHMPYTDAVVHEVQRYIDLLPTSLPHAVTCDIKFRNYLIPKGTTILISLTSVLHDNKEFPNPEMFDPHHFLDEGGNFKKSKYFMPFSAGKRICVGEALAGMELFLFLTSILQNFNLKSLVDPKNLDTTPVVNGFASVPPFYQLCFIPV
# Sequence of Cytochrome P450 2D6 (P10635 whole entry): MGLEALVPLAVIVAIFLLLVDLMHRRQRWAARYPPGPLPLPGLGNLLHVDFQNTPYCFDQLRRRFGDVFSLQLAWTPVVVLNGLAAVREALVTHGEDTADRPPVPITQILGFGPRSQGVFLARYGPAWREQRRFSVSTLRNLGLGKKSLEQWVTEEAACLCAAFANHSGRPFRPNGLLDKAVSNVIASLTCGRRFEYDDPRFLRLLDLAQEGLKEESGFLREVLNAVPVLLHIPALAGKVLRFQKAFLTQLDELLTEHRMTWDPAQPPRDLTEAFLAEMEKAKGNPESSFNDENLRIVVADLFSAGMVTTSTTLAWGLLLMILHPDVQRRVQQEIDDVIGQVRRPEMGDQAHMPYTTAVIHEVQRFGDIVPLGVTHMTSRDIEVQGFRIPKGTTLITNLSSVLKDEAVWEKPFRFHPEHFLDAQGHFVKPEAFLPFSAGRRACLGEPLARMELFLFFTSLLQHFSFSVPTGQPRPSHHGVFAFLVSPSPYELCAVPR
smiles,measurement,setting,value
CC1(Cc2ccc(C(F)(F)F)nc2)C(=O)Nc2cc(-c3ccccc3Cl)ccc21 (stereo not given),EC50,HEK293 [1],> 59.6 µM (inactive)
same,EC50,HEK293 [2],> 59.6 µM (inactive)
NS(=O)(=O)c1ccc(N/C=C\C(=O)c2ccc3ccccc3c2)cc1,IC50,[3],28.6 µM (active)
same,IC50,[4],> 100 µM (inactive)
same,IC50,Prothrombin,56.5 µM (active)
Cc1noc(C)c1S(=O)(=O)Nc1ccc2c(c1)C(=O)N([C@H](C)CO)C[C@H](C)[C@H](CN(C)C(=O)Nc1ccc(C(F)(F)F)cc1)O2,AC50,[5],4.97 µM (active)
CN(C)C=O.CN(C)c1ccc(/C=C/c2nc3ccccc3c(=O)n2-c2ccc(C(=O)O)cc2)cc1,IC50,CHO,> 49.7 µM (inactive)
same,IC50,Beta Lactamase,9 µM (active)
C=C(C)n1c(=O)n(Cc2ccccc2C)c2ccccc21,AC50,[6],1.32 µM (active)
CC(C)Cc1nnc(NC(=O)Cc2cccs2)s1,IC50,[3],20.6 µM (active)
same,IC50,[4],> 100 µM (inactive)
same,IC50,Prothrombin,44.7 µM (active)
Nc1cc(Cl)c2nonc2c1[N+](=O)[O-],CC50,[7],12 µM (active)
same,IC50,CHO,2.12 µM (active)
same,IC50,Beta Lactamase,> 49.7 µM (inactive)
same,AC50,[8],5.37 µM (active)
same,AC50,[9],29.6 µM (active)
same,AC50,[10],1.37 µM (active)
same,EC50,HEK293 [1],> 59.7 µM (inactive)
same,EC50,HEK293 [2],> 59.7 µM (inactive)
C[C@H](CO)N1C[C@H](C)[C@H](CN(C)Cc2ccc(C(=O)Nc3ccccc3N)cc2)Oc2c(NS(=O)(=O)c3cccs3)cccc2C1=O,AC50,[5],1.87 µM (active)
CCN(CC)S(=O)(=O)c1ccc(NC(=O)c2ccc(Cl)nc2)cc1,AC50,[6],6.89 µM (active)
COCCCN(C(=S)NC(=O)C12CC3CC(CC(C3)C1)C2)c1c(N)n(Cc2ccccc2)c(=O)[nH]c1=O,AC50,[11],1.97 µM (active)
same,AC50,[12],2.64 µM (active)
same,AC50,[13],1.92 µM (active)
same,AC50,[14],4.29 µM (active)
same,EC50,HEK293 [1],> 59.7 µM (inactive)
same,EC50,HEK293 [2],> 59.7 µM (inactive)
O=C(NCCN1C(=O)S/C(=C\c2ccccc2)C1=O)c1cc(S(=O)(=O)N2CCOCC2)c(Cl)cc1Cl,IC50,CHO-K1,> 66.2 µM (inactive)
same,IC50,[15],21.3 µM (inactive)
same,IC50,[16],20.3 µM (inactive)
same,IC50,[17],10.5 µM (inactive)
Cc1cccc(C)c1-n1c(C)cc(/C=N\Nc2ccc([N+](=O)[O-])cn2)c1C,IC50,CHO,> 49.8 µM (inactive)
same,IC50,Beta Lactamase,4.04 µM (active)
Cn1cnc([N+](=O)[O-])c1S(=O)(=O)Nc1ccccc1,IC50,[18],52.8 µM (inactive)
same,AC50,Caspase-6,9.66 µM (active)
S=C1SCN(Cc2ccccn2)CN1Cc1ccco1,CC50,Vero,24 µM (active)
same,AC50,Cytochrome P450 2D6,17.8 µM (inconclusive)
same,AC50,Cytochrome P450 1A2,11.2 µM (inconclusive)
same,AC50,Cytochrome P450 2C9,14.1 µM (inconclusive)
C=CCC[C@@H](Cc1ccc(F)cc1)C(=O)OC[C@@H](Cc1c[nH]c2ccccc12)NC(=O)[C@@H](CC=C)CC(=O)N(CCO)Cc1ccccc1,AC50,[19],5.96 µM (active)
same,CC50,Vero,15.5 µM (active)
COC(=O)C1C(=O)C=C(Nc2ccc(F)cc2)CC1c1ccc(OC)cc1 (stereo not given),AC50,[6],1.01 µM (active)
CCCCNc1c(-c2ccc(-c3ccc(OC)cc3)c(OC)c2)nc2ccccn12,CC50,Vero,> 25 µM (active)
O=C(C1=C(O)C(=O)N(CCCn2ccnc2)C1c1cccc(Br)c1)c1ccco1 (stereo not given),IC50,[18],155 µM (inactive)
